Assay results from patent US20020192754A1 (MAX-PLANCK-GESELLSCHAFT E.V., priority 1999, published 2002).
Where two headings read alike, the source gives them in different places. Where a SMILES comes first, the peptide text is derived from it. [ ]: non-standard residue; d: D form. The star is where a group is joined. Sta = CC(C)C[C@H](N)[C@@H](O)CC(=O)O; Isovaleryl = CC(C)CC(=O)*; CH2Cl = ClC*

Experiments:
human GzmK [1] = target: T1, human GzmK (Homo sapiens, UniProt P49863); experiment: Inhibition of human GzmK by various inhibitors (residual activity, this study); type: biochemical
T1 construct: Met-Glu N-terminal helper dipeptide (pro-dipeptide) (N, cleaved yes); made in house
T1 sequence (P49863 27-264): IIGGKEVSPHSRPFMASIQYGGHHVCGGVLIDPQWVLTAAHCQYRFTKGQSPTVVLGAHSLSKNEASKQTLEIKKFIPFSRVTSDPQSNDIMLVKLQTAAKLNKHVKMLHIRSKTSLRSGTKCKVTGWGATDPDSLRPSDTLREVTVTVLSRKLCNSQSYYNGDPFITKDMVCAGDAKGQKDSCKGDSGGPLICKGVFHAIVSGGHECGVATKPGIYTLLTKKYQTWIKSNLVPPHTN
Procedure: These activity tests were performed in wells of a 96-cup tray with respectively 150 μl of the sample volume.
The thiobenzylester substrates and Ellman's reagency were diluted to end concentrations of 0.3 mM in the test buffer (150 mM Tris, 50 mM NaCl, 0.01% Triton X-100, pH 7.6). The various granzyme preparations were likewise diluted to 3-15 nM in the test buffer. The color change occurring with the conversion of the substrates was measured at 405 nm and room temperature over 5 minutes in the ELISA reader. The difference in absorptions at the beginning and after 5 minutes as it relates to time was used to calculate the conversion rate.
After a 60-minute preincubation at RT the residual activity was ascertained in triple batches. Initial activities were determined in buffers containing the same proportion of organic solvents. […] Molar concentrations of active aprotinine were ascertained with the use of activity-titrated bovine trypsin.

human GzmK [2] = target: T1, human GzmK; details: cited from earlier work
[3] = inhibitor 0.1 mM, I:E 33 x 10^3, 3 nM human GzmK, 60-minute preincubation at RT

## N=C(N)c1ccccc1 [Benzamidine]
Human GzmK [1]; inhibitor 27.0 mM, I:E 9000 x 10^3, 3 nM human GzmK, 60-minute preincubation at RT
  remaining activity at 27000 µM: 43.1%
Human GzmK [2]; table row: inhibitor 27.0 mM
  Residual Activity (%) Babé et al., Bio. Appl. Bioch. 27:117-124 (1998): 50%

## O=C(O)CN(CCN(CC(=O)O)CC(=O)O)CC(=O)O [EDTA]
Human GzmK [1]
  Residual Activity (%) This study: 106.4%
Human GzmK [2]
  Residual Activity (%) Babé et al., Bio. Appl. Bioch. 27:117-124 (1998): 100%

## NC(N)=NCCC[C@H](NC(=O)CNC(=O)[C@@H](N)CCC(=O)O)C(=O)CCl [EGR-CMK] (H-Glu-Gly-Arg-CH2Cl)
Human GzmK [1]; [3]
  Residual Activity (%) This study: 54.8%

## NC(N)=NCCC[C@H](NC(=O)[C@@H]1CCCN1C(=O)[C@H](N)Cc1ccccc1)C(=O)CCl [FPR-CMK]
Human GzmK [1]; [3]
  Residual Activity (%) This study: 0.0%

## CC(=O)N[C@@H](CC(C)C)C(=O)N[C@@H](CC(C)C)C(=O)N[C@H](C=O)CCCNC(=N)N [Leupeptin]
Human GzmK [1]; inhibitor 0.2 mM, I:E 67 x 10^3, 3 nM human GzmK, 60-minute preincubation at RT
  remaining activity at 200 µM: 78%
Human GzmK [2]; table row: inhibitor 0.2 mM
  Residual Activity (%) Babé et al., Bio. Appl. Bioch. 27:117-124 (1998): 50%

## Cl.NCCc1ccc(S(=O)(=O)F)cc1 [PefablocSC]
Human GzmK [1]; inhibitor 0.5 mM, I:E 170 x 10^3, 3 nM human GzmK, 60-minute preincubation at RT
  Residual Activity (%) This study: 26.0%
Human GzmK [1]; inhibitor 1.0 mM, I:E 330 x 10^3, 3 nM human GzmK, 60-minute preincubation at RT
  Residual Activity (%) This study: 5.7%

## CC(C)CC(=O)N[C@H](C(=O)N[C@H](C(=O)N[C@@H](CC(C)C)[C@@H](O)CC(=O)N[C@@H](C)C(=O)N[C@@H](CC(C)C)[C@@H](O)CC(=O)O)C(C)C)C(C)C [Pepstatin A] (Isovaleryl-VV[Sta]A[Sta]-OH)
Human GzmK [1]; inhibitor 0.001 mM, I:E 0.3 x 10^3, 3 nM human GzmK, 60-minute preincubation at RT
  Residual Activity (%) This study: 93.0%
Human GzmK [2]; table row: inhibitor 0.001 mM
  Residual Activity (%) Babé et al., Bio. Appl. Bioch. 27:117-124 (1998): 100%

## Aprotinine
Human GzmK [1]; inhibitor 0.015 mM, I:E 5 x 10^3, 3 nM human GzmK, 60-minute preincubation at RT
  Residual Activity (%) This study: 8.6%
Human GzmK [2]; table row: inhibitor 0.015 mM
  Residual Activity (%) Babé et al., Bio. Appl. Bioch. 27:117-124 (1998): 0%

## N-tosyllysine chloromethylketone [TLCK]
Human GzmK [1]; [3]
  Residual Activity (%) This study: 91.0%
Human GzmK [2]; table row: inhibitor 0.1 mM
  Residual Activity (%) Babé et al., Bio. Appl. Bioch. 27:117-124 (1998): 0%

## N-tosylphenylalanine chloromethylketone [TPCK]
Human GzmK [1]; inhibitor 0.05 mM, I:E 17 x 10^3, 3 nM human GzmK, 60-minute preincubation at RT
  Residual Activity (%) This study: 96.0%
Human GzmK [2]; table row: inhibitor 0.05 mM
  Residual Activity (%) Babé et al., Bio. Appl. Bioch. 27:117-124 (1998): 95%
